Where two headings read alike, the source gives them in different places.
Assays:
Type in all cases: in vivo
Plutella xylostella = Plutella xylostella (Diamond Back Moth) artificial diet MTP test; conditions: 144 h, 200 ppm (concentration in well 18 ppm), L2 larvae, 6 days, larval mortality, growth regulation
Thrips tabaci = Thrips tabaci (Onion Thrips) sunflower leaf disc spray test; conditions: foliar, 168 h, 200 ppm spray on sunflower leaf discs, population of mixed ages, 7 days, mortality
Tetranychus urticae = Tetranychus urticae (Two-Spotted Spider Mite) bean leaf disc spray test; conditions: foliar, 192 h, read-out: control of Tetranychus urticae
Spodoptera littoralis = Spodoptera littoralis (Egyptian Cotton Leafworm) cotton leaf disc spray test; conditions: foliar, 72 h, 200 ppm spray on cotton leaf discs, L1 larvae, mortality, feeding behavior, growth regulation 3 DAT
Heliothis virescens = Heliothis virescens (Tobacco Budworm) egg test on artificial diet; conditions: 96 h, 200 ppm (concentration in well 18 ppm), eggs 0-24 h old on artificial diet, 4 days, egg mortality, larval mortality, growth regulation
Diabrotica balteata = Diabrotica balteata (Corn Root Worm) artificial diet MTP test; conditions: 120 h, 200 ppm (concentration in well 18 ppm), L2 larvae, 5 days, larval mortality, growth regulation
[1] = 200 ppm spray on bean leaf discs, mite populations of mixed ages, 8 days, egg, larval and adult mortality

Measured: pest or weed control at 200 ppm

CCc1cc(C(F)(C(F)(F)F)C(F)(F)C(F)(F)F)cc(C)c1NC(=O)c1cccc(NC(=O)c2cccc([N+](=O)[O-])c2C)c1OC (stereo not drawn) [A2, N-[2-ethyl-4-(1,2,2,3,3,3-hexafluoro-1-trifluoromethylpropyl)-6-methylphenyl]-3-(2-methyl-3-nitrobenzoylamino)-2-methoxybenzamide]
≥ 80%: Plutella xylostella | Thrips tabaci | Tetranychus urticae; [1] | Spodoptera littoralis

COc1c(NC(=O)c2ccc(C#N)cc2C)cccc1C(=O)Nc1c(Cl)cc(C(F)(C(F)(F)F)C(F)(F)C(F)(F)F)cc1Br (stereo not drawn) [B1, N-[2-bromo-6-chloro-4-(1,2,2,3,3,3-hexafluoro-1-trifluoromethylpropyl)-phenyl]-3-(4-cyano-2-methylbenzoylamino)-2-methoxybenzamide]
≥ 80%: Plutella xylostella | Thrips tabaci | Tetranychus urticae; [1] | Spodoptera littoralis | Heliothis virescens

COc1c(NC(=O)c2ccc([N+](=O)[O-])o2)cccc1C(=O)Nc1c(Cl)cc(C(F)(C(F)(F)F)C(F)(F)C(F)(F)F)cc1Br (stereo not drawn) [B61]
≥ 80%: Plutella xylostella | Tetranychus urticae; [1] | Spodoptera littoralis | Heliothis virescens | Diabrotica balteata

COc1c(NC(=O)c2ccc(Br)c(C)c2)cccc1C(=O)Nc1c(Cl)cc(C(F)(C(F)(F)F)C(F)(F)C(F)(F)F)cc1Br (stereo not drawn) [B65]
≥ 80%: Plutella xylostella | Thrips tabaci | Tetranychus urticae; [1] | Spodoptera littoralis | Heliothis virescens

COc1c(NC(=O)c2cccc([N+](=O)[O-])c2C)cccc1C(=O)Nc1c(Cl)cc(C(F)(C(F)(F)F)C(F)(F)C(F)(F)F)cc1Br (stereo not drawn) [B69]
≥ 80%: Plutella xylostella | Tetranychus urticae; [1] | Spodoptera littoralis | Heliothis virescens | Diabrotica balteata

COc1c(NC(=O)c2sc(C)nc2C)cccc1C(=O)Nc1c(Cl)cc(C(F)(C(F)(F)F)C(F)(F)C(F)(F)F)cc1Br (stereo not drawn) [B96]
≥ 80%: Plutella xylostella | Tetranychus urticae; [1] | Spodoptera littoralis | Heliothis virescens | Diabrotica balteata

COc1c(NC(=O)c2c(Cl)cccc2Cl)cccc1C(=O)Nc1c(Cl)cc(C(F)(C(F)(F)F)C(F)(F)C(F)(F)F)cc1Br (stereo not drawn) [B158]
≥ 80%: Plutella xylostella | Tetranychus urticae; [1] | Spodoptera littoralis | Heliothis virescens | Diabrotica balteata

COc1c(NC(=O)c2c(C)cc(Br)cc2Cl)cccc1C(=O)Nc1c(Cl)cc(C(F)(C(F)(F)F)C(F)(F)C(F)(F)F)cc1Br (stereo not drawn) [B159]
≥ 80%: Plutella xylostella | Tetranychus urticae; [1] | Spodoptera littoralis | Heliothis virescens | Diabrotica balteata

COc1c(NC(=O)c2ccc([N+](=O)[O-])c(Cl)c2)cccc1C(=O)Nc1c(Cl)cc(C(F)(C(F)(F)F)C(F)(F)C(F)(F)F)cc1Br (stereo not drawn) [B170]
≥ 80%: Plutella xylostella | Tetranychus urticae; [1] | Spodoptera littoralis | Heliothis virescens | Diabrotica balteata

COc1c(NC(=O)c2c(F)cccc2F)cccc1C(=O)Nc1c(Cl)cc(C(F)(C(F)(F)F)C(F)(F)C(F)(F)F)cc1Br (stereo not drawn) [B172]
≥ 80%: Plutella xylostella | Thrips tabaci | Tetranychus urticae; [1] | Spodoptera littoralis | Heliothis virescens

COc1c(NC(=O)c2ccc([N+](=O)[O-])c(C(F)(F)F)c2)cccc1C(=O)Nc1c(Cl)cc(C(F)(C(F)(F)F)C(F)(F)C(F)(F)F)cc1Br (stereo not drawn) [B179]
≥ 80%: Plutella xylostella | Tetranychus urticae; [1] | Spodoptera littoralis | Heliothis virescens | Diabrotica balteata

COc1c(NC(=O)c2cccc([N+](=O)[O-])c2)cccc1C(=O)Nc1c(Cl)cc(C(F)(C(F)(F)F)C(F)(F)C(F)(F)F)cc1Br (stereo not drawn) [B193]
≥ 80%: Plutella xylostella | Tetranychus urticae; [1] | Spodoptera littoralis | Heliothis virescens

COc1c(NC(=O)c2cccnc2F)cccc1C(=O)Nc1c(Cl)cc(C(F)(C(F)(F)F)C(F)(F)C(F)(F)F)cc1Br (stereo not drawn) [B194]
≥ 80%: Plutella xylostella | Tetranychus urticae; [1] | Spodoptera littoralis | Heliothis virescens | Diabrotica balteata

COc1c(NC(=O)c2ccc([N+](=O)[O-])c([N+](=O)[O-])c2)cccc1C(=O)Nc1c(Cl)cc(C(F)(C(F)(F)F)C(F)(F)C(F)(F)F)cc1Br (stereo not drawn) [B195]
≥ 80%: Plutella xylostella | Tetranychus urticae | Spodoptera littoralis | Heliothis virescens

COc1c(NC(=O)c2ccc(C#N)cc2Cl)cccc1C(=O)Nc1c(Cl)cc(C(F)(C(F)(F)F)C(F)(F)C(F)(F)F)cc1Br (stereo not drawn) [B198]
≥ 80%: Plutella xylostella | Tetranychus urticae; [1] | Spodoptera littoralis | Heliothis virescens

COc1c(NC(=O)c2ccco2)cccc1C(=O)Nc1c(Cl)cc(C(F)(C(F)(F)F)C(F)(F)C(F)(F)F)cc1Cl (stereo not drawn) [C12]
≥ 80%: Plutella xylostella | Tetranychus urticae; [1] | Spodoptera littoralis | Heliothis virescens | Diabrotica balteata

COc1c(NC(=O)c2cc(F)c(C#N)cc2F)cccc1C(=O)Nc1c(Cl)cc(C(F)(C(F)(F)F)C(F)(F)F)cc1Cl [E24]
≥ 80%: Plutella xylostella | Tetranychus urticae; [1] | Spodoptera littoralis | Heliothis virescens | Diabrotica balteata

COc1c(NC(=O)c2ccccc2F)cccc1C(=O)Nc1c(C)cc(C(F)(C(F)(F)F)C(F)(F)C(F)(F)F)cc1C (stereo not drawn) [F1]
≥ 80%: Plutella xylostella | Tetranychus urticae; [1] | Spodoptera littoralis | Heliothis virescens | Diabrotica balteata

COc1c(NC(=O)c2ccc(OC(F)(F)F)cc2)cccc1C(=O)Nc1c(C)cc(C(F)(C(F)(F)F)C(F)(F)C(F)(F)F)cc1C (stereo not drawn) [F5]
≥ 80%: Plutella xylostella | Tetranychus urticae; [1] | Spodoptera littoralis | Heliothis virescens

COc1c(NC(=O)c2ccc(Cl)cc2Cl)cccc1C(=O)Nc1c(C)cc(C(F)(C(F)(F)F)C(F)(F)C(F)(F)F)cc1C (stereo not drawn) [F15]
≥ 80%: Plutella xylostella | Tetranychus urticae; [1] | Spodoptera littoralis | Heliothis virescens | Diabrotica balteata

COc1c(NC(=O)c2ccc(S(C)(=O)=O)cc2)cccc1C(=O)Nc1c(C)cc(C(F)(C(F)(F)F)C(F)(F)C(F)(F)F)cc1C (stereo not drawn) [F18]
≥ 80%: Plutella xylostella | Tetranychus urticae; [1] | Spodoptera littoralis | Heliothis virescens | Diabrotica balteata

COc1c(NC(=O)c2ccc([N+](=O)[O-])cc2C)cccc1C(=O)Nc1c(C)cc(C(F)(C(F)(F)F)C(F)(F)C(F)(F)F)cc1C (stereo not drawn) [F24]
≥ 80%: Plutella xylostella | Tetranychus urticae; [1] | Spodoptera littoralis | Heliothis virescens | Diabrotica balteata

COc1c(NC(=O)c2c(F)cc(F)cc2F)cccc1C(=O)Nc1c(C)cc(C(F)(C(F)(F)F)C(F)(F)C(F)(F)F)cc1C (stereo not drawn) [F25]
≥ 80%: Plutella xylostella | Tetranychus urticae; [1] | Spodoptera littoralis | Heliothis virescens | Diabrotica balteata

COc1c(NC(=O)c2ccc(F)cc2C)cccc1C(=O)Nc1c(C)cc(C(F)(C(F)(F)F)C(F)(F)C(F)(F)F)cc1C (stereo not drawn) [F27]
≥ 80%: Plutella xylostella | Tetranychus urticae; [1] | Spodoptera littoralis | Heliothis virescens | Diabrotica balteata

COc1c(NC(=O)c2ccc([N+](=O)[O-])cc2Cl)cccc1C(=O)Nc1c(C)cc(C(F)(C(F)(F)F)C(F)(F)C(F)(F)F)cc1C (stereo not drawn) [F28]
≥ 80%: Tetranychus urticae; [1] | Spodoptera littoralis | Heliothis virescens | Diabrotica balteata

COc1c(NC(=O)c2ccc(C#N)cc2C)cccc1C(=O)Nc1c(Cl)cc(C(F)(C(F)(F)F)C(F)(F)F)cc1Br [G1]
≥ 80%: Plutella xylostella | Tetranychus urticae; [1] | Spodoptera littoralis | Heliothis virescens | Diabrotica balteata

COc1c(NC(=O)c2ccc(C#N)cc2Cl)cccc1C(=O)Nc1c(Cl)cc(C(F)(C(F)(F)F)C(F)(F)F)cc1Br [G2]
≥ 80%: Plutella xylostella | Tetranychus urticae; [1] | Spodoptera littoralis | Heliothis virescens | Diabrotica balteata

CCc1cc(C(F)(C(F)(F)F)C(F)(F)F)cc(C)c1NC(=O)c1cccc(NC(=O)c2c(F)cc(C#N)cc2F)c1OC [J2]
≥ 80%: Plutella xylostella | Tetranychus urticae; [1] | Heliothis virescens | Diabrotica balteata

COc1c(NC(=O)c2ccc(C#N)cc2C)cccc1C(=O)Nc1c(C)cc(C(F)(C(F)(F)F)C(F)(F)F)cc1C [K4]
≥ 80%: Plutella xylostella | Tetranychus urticae; [1] | Spodoptera littoralis | Heliothis virescens | Diabrotica balteata

From patent US20120295907A1, “INSECTICIDAL COMPOUNDS” (SYNGENTA CROP PROTECTION, LLC, priority 2009, published 2012)
